The target of the assay is human TRPA1 channel (Homo sapiens (Human), UniProt O75762). As to the kind of experiment: hTRPA1 CHO Ca2+ FLIPR Tetra assay: block of cinnamaldehyde induced calcium influx. Type of assay: cell-based. The note with it: CHO cells expressing TRPA1, Hill coefficient fixed to 1.5. In a few lines: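 TRPA1-expressing CHO cells loaded with calcium indicator dye (1 h 37° C, then 15 min room temperature) in HBSS/20 mM HEPES pH 7.4/0.02% BSA. IC50 from fits with fixed Hill coefficient.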
human TRPA1 channel, sequence (O75762 whole entry): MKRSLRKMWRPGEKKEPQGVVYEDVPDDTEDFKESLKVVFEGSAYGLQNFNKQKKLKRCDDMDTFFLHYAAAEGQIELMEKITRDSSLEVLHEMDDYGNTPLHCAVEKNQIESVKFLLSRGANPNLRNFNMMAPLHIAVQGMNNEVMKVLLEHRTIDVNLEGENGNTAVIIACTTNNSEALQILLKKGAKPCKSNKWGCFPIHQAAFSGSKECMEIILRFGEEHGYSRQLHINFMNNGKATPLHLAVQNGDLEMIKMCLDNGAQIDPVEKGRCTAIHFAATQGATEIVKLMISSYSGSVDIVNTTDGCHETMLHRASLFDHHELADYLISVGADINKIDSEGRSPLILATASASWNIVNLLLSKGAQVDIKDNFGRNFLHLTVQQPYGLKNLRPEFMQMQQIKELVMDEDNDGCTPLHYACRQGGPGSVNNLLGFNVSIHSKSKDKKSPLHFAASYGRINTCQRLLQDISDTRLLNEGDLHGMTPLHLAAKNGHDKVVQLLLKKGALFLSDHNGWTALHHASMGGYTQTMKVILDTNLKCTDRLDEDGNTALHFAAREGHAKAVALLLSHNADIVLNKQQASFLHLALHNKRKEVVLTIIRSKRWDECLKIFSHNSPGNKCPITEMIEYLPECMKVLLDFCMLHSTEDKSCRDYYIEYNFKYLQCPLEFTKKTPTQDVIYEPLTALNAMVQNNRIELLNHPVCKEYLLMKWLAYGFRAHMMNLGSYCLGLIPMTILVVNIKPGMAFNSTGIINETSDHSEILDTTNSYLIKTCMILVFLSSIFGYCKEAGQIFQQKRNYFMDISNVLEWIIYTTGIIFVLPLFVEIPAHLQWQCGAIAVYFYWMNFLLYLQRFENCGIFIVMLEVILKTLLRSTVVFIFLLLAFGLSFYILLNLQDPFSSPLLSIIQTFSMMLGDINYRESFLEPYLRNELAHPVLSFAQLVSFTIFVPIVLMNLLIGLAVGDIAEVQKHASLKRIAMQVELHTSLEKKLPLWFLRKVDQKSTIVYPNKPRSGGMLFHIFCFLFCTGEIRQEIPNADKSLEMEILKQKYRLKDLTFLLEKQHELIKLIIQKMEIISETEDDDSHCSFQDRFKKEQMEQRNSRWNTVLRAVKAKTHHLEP

Where [1] appears, read: read-out: hTRPA1 IC50 10 min, 10 minutes incubation with compound before cinnamaldehyde (about EC80).
Setting [2] is: read-out: hTRPA1 IC50 90 min, 90 minutes incubation with compound before cinnamaldehyde (about EC80).

In US10710994B2, “Oxadiazole transient receptor potential channel inhibitors” (Genentech, Inc., priority 2018, dated 2020) one finds IC50 data, which are given here for ten compounds.

Structures are written as SMILES. Like-named read-outs stand apart in the source and are kept apart here.

By IC50 is commonly meant the concentration that gives 50% inhibition. In the case of `Cn1cnc2c(C(N)=O)nn(Cc3nc([C@@H]4CO[C@@H](c5ccc(Cl)cc5)C4)no3)c(=O)c21` [Example 116, 6-((3-((3R,5R)-5-(4-chlorophenyl)tetrahydro-furan-3-yl)-1,2,4-oxadiazol-5-yl)methyl)-1-methyl-7-oxo-6,7-dihydro-1H-imidazo [4,5-d]pyridazine-4-carboxamide], the IC50 under setting [1] came out at 76.5 nM and the IC50 under setting [2] is 39 nM.
`Cc1n[nH]c2ncn(Cc3nc([C@@H]4CO[C@@H](c5ccc(Cl)cc5)C4)no3)c(=O)c12` [Example 117, 5-((3-((3R,5R)-5-(4-chlorophenyl)tetrahydro-furan-3-yl)-1,2,4-oxadiazol-5-yl)methyl)-3-methyl-1,5-dihydro-4H-pyrazolo[3,4-d] pyrimidin-4-one]: the IC50 runs as follows: under setting [1], 11.3 nM; under setting [2], 5.9 nM.
In the same order, the values of `O=C1CCc2c(ncn(Cc3nc([C@@H]4CO[C@@H](c5ccc(Cl)cc5)C4)no3)c2=O)N1` [Example 118, 3-((3-((3R,5R)-5-(4-chlorophenyl)tetrahydro-furan-3-yl)-1,2,4-oxadiazol-5-yl)methyl)-5,8-dihydropyrido[2,3-d] pyrimidine-4,7(3H,6H)-dione] are 96.4 nM and 47 nM.
In the case of `Nc1nc2ncccc2c(=O)n1Cc1nc([C@@H]2CO[C@@H](c3cccc(F)c3)C2)no1` [Example 119, 2-amino-3-((3-((3R,5R)-5-(3-fluorophenyl)tetrahydro-furan-3-yl)-1,2,4-oxadiazol-5-yl)methyl) pyrido[2,3-d]pyrimidin-4(3H)-one], the IC50 under setting [1] came out at 31.9 nM and the IC50 under setting [2] was found to be 13 nM.
Consider `Cn1cnc2nc(Cl)n(Cc3nc([C@@H]4CO[C@@H](c5ccc(Cl)cc5)C4)no3)c(=O)c21` [Example 120, 2-chloro-1-((3-((3R,5R)-5-(4-chlorophenyl)tetrahydro-furan-3-yl)-1,2,4-oxadiazol-5-yl)methyl)-7-methyl-1,7-dihydro-6H-purin-6-one], for which the IC50 under setting [1] is 29.4 nM and the IC50 under setting [2] is 20 nM.
In the case of `Cn1nncc1C(=O)NCc1nc([C@@H]2CO[C@@H](c3ccc(Cl)cc3)C2)no1` [Example 121, N-((3-((3R,5R)-5-(4-chlorophenyl)tetrahydro-furan-3-yl)-1,2,4-oxadiazol-5-yl)methyl)-1-methyl-1H-1,2,3-triazole-5-carboxamide], the IC50 runs as follows: under setting [1], 111 nM; under setting [2], 49 nM.
Turning to `Cc1cnn2ncn(Cc3nc([C@@H]4CO[C@@H](c5ccc(C#N)cc5)C4)no3)c(=O)c12` [Example 122, 4-((2R,4R)-4-(5-((5-methyl-4-oxopyrazolo[5,1-f][1,2,4]triazin-3(4H)-yl)methyl)-1,2,4-oxadiazol-3-yl)tetrahydrofuran-2-yl)benzonitrile], the IC50 is, setting by setting: under setting [1], 75.8 nM; under setting [2], 39 nM.
Consider `Cn1cnc2nc(N)n(Cc3nc([C@@H]4CO[C@@H](c5ccc(Cl)cc5)C4)no3)c2c1=O` [Example 123, 8-amino-7-((3-((3R,5R)-5-(4-chlorophenyl)tetrahydro-furan-3-yl)-1,2,4-oxadiazol-5-yl)methyl)-1-methyl-1,7-dihydro-6H-purin-6-one], for which the IC50 by setting is: under setting [1], 126 nM; under setting [2], 17 nM.
Consider `O=c1ccc2c(=O)n(Cc3nc([C@@H]4CO[C@@H](c5ccc(Cl)cc5)C4)no3)cnc2[nH]1` [Example 124, 3-((3-((3R,5R)-5-(4-chlorophenyl)tetrahydro-furan-3-yl)-1,2,4-oxadiazol-5-yl)methyl) pyrido[2,3-d]pyrimidine-4,7(3H,8H)-dione], for which the IC50 reads like this: under setting [1], 12.7 nM; under setting [2], 16 nM.
As for `Cn1cnc2nc(N)n(Cc3nc([C@@H]4CO[C@@H](c5cccc(F)c5)C4)no3)c(=O)c21` [Example 125, 2-amino-1-((3-((3R,5R)-5-(3-fluorophenyl)tetrahydrofuran-3-yl)-1,2,4-oxadiazol-5-yl)methyl)-7-methyl-1,7-dihydro-6H-purin-6-one], the IC50 reads like this: under setting [1], 40.5 nM; under setting [2], 3.1 nM.
